Results taken from patent publication US20240207403A1, “PERSONALIZED IMMUNOTHERAPY USING INTESTINAL METABOLITES” (Evolve Biosystems, Inc., priority 2021, published 2024).

How the values were obtained:
[1] = test system: Aryl hydrocarbon Receptor (AhR); details: bifidobacteria-derived ILA; cited from earlier work
[2] = molecular target: hydrocarboxylic acid receptor 3 (HCAR3) (Homo sapiens, UniProt P49019); details: bifidobacteria-derived ILA; cited from earlier work
naïve CD4+ T-cells = test: In vitro polarization of naïve CD4+ T-cells with fecal water, ILA or IFNβ, read out by targeted sc-mRNA-seq; type: cell-based, human; details: for LGALS1 (Galectin-1) in Th0, Th2 and Th17 cells: ILA alone (1 mM) during polarization
Method: To evaluate the cellular states of polarized T-cells, the inventors applied a targeted multiomics approach quantifying 259 mRNA molecules with known functions in T-cells and 10 surface proteins detected by oligo-coupled antibodies (Abseq™, Rhapsody™, BD Biosciences) (Mair et al., 2020).
T-cell polarization experiments. PBMC derived CD3 CD4 CD45RA″ naïve T-cells (CD8/14/19/56 negative) into an enriched culture medium including RPMI 1640+10% FBS+NEAA+1% Pen-strep+55 μM β-mercaptoethanol. Cells are added at a concentration of 2×10^5 cells/ml and pre-washed and resuspended 2.5 ml T-Activator Dynabeads are added to obtain a bead:cell ratio of 1:2. One milliliter of bead/cell suspension was added to 24-well plate and the following polarizing supplements Th0: No cytokines, Th1: IL-12 (50 nanogram (ng)/ml), Anti-human IL-4 antibody (1 μg/ml) Th2: IL-4 (10 ng/ml), Anti-human IFN-γ antibody (1 μg/ml), Th17: IL-6 (50 ng/ml), IL-23 (20 ng/ml), IL-1B (10 ng/ml), TGF-β1 (5 ng/ml), Anti-hum IL-4 (1 μg/ml), Anti-human IFN-γ antibody (1 μg/ml), iTreg: TGF-β1 (5 ng/ml), IL-2 (10 ng/ml) IFN-β: IFN-β (10 ng/ml). Cells are incubated at 37 °C, 5% CO2 humidified incubator for 5 days and harvested.
Targeted transcriptome and protein by BD Rhapsody single cell RNA Sequencing. Polarized T cells in each condition were labeled using BD Single-Cell Multiplexing Kit and BD AbSeq Ab-Oligos reagents strictly following the manufacturers protocol (BD Biosciences). Briefly, cells from each experiment condition were labelled with each sample tag and pooled 18 AbSeqAb-Oligos. Each sample was then washed twice, counted and resuspended in cold BD SampleBuffer, then calculated the cell number in each sample, then pooled the required number of cells from each sample to get approximately 20,000 cells in 620 μl for each cartridge (around 9 samples for each cartridge). After priming the nanowell cartridges, the pooled sample was loaded onto BDRhapsody cartridges and incubated at room temperature. Cell Capture Beads were prepared and then loaded onto the cartridge. According to the manufacturers protocol, cartridges were washed, cells were lysed, and Cell Capture Beads were retrieved and washed prior to performing reverse transcription and treatment with Exonuclease I. cDNA Libraries were prepared using mRNA Targeted, Sample Tag, and BD AbSeq Library Preparation with the BD Rhapsody Targeted mRNA and AbSeq Amplification Kits and protocol. […] Quality and quantity of PCR products were determined by using an Agilent 2100 Bioanalyzer and Qubit Fluorometer using the Qubit dsDNA HS Kit (ThermoFisher). […] Quality of final libraries was assessed by using Agilent Bioanalyzer and quantified using a Qubit Fluorometer. […]

[3] = ILA alone (1 mM) instead of fecal water

Sequence of hydrocarboxylic acid receptor 3 (HCAR3) (P49019 whole entry): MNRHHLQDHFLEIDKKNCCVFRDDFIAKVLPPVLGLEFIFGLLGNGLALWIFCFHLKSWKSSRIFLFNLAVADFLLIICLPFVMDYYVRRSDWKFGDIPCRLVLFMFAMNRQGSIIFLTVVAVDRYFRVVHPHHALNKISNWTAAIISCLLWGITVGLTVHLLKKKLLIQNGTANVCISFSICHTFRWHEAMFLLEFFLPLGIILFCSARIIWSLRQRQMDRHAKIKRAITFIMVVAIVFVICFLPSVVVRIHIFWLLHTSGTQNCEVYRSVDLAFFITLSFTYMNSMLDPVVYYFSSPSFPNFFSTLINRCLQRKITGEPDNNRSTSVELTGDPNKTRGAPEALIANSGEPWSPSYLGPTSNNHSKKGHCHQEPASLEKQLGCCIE

O=C(O)C(O)Cc1c[nH]c2ccccc12 (stereo not drawn) [ILA, Indole-3-lactic acid]
binding to AhR [1]: bind
binding to HCAR3 [2]: bind
LGALS1 (Galectin-1) in Th0, Th2 and Th17 cells (naïve CD4+ T-cells): strongly upregulated
LGALS1 (Galectin-1) in Th0, Th2 and Th17 cells (naïve CD4+ T-cells; listed as indole-3-lactic acid): upregulated
CXCR3 mRNA in Th0, Th2 and Th17 cells (naïve CD4+ T-cells; [3]): upregulated
granzyme B mRNA in Th0, Th2 and Th17 cells (naïve CD4+ T-cells; [3]): upregulated
